Experiment: xn = mol fraction of the nth substance listed

CC1CCCCC1 + CCCCCCCCCC
viscosity [mPa·s], 101 kPa
Conditions	293.15 K	298.15 K	303.15 K	308.15 K
x1 = 0.0406	0.9179	0.8528	0.7888	–
x1 = 0.1014	–	0.843	0.787	0.731
x1 = 0.2029	0.879	0.8207	0.76	–
x1 = 0.2034	–	0.824	0.77	0.716
x1 = 0.2805	0.8623	0.8054	0.747	–
x1 = 0.3035	–	0.806	0.753	0.7
x1 = 0.3569	0.8458	0.7898	0.7352	–
x1 = 0.4055	–	0.787	0.735	0.684
x1 = 0.4409	0.8287	0.7729	0.723	–
x1 = 0.5004	–	0.769	0.719	0.669
x1 = 0.5991	0.7985	0.7421	0.7008	–
x1 = 0.5998	–	0.751	0.702	0.654
x1 = 0.6756	0.7845	0.7282	0.6906	–
x1 = 0.7041	–	0.731	0.684	0.637
x1 = 0.7618	0.7694	0.7135	0.6796	–
x1 = 0.8039	–	0.713	0.667	0.621
x1 = 0.8475	0.7548	0.7009	0.6683	–
x1 = 0.8993	–	0.695	0.651	0.606
x1 = 0.9148	0.7428	0.6913	0.6592	–

CCCCCCCCCCCCCCCCCCCCCCCC + CCCCCCCCCC
Conditions	viscosity [mPa·s]
313.2 K, 101.3 kPa, x2 = 0.8	1.48

CCCCCCCCCCCl + CCCCCCCCCC
viscosity [mPa·s], 101 kPa
Conditions	x2 = 0.1	x2 = 0.2004	x2 = 0.2954	x2 = 0.3988	x2 = 0.4972	x2 = 0.593	x2 = 0.6968	x2 = 0.7947	x2 = 0.8906
293.15 K	1.796	1.66	1.539	1.419	1.315	1.225	1.136	1.063	0.997
298.15 K	1.649	1.523	1.415	1.307	1.214	1.133	1.054	0.99	0.931
303.15 K	1.5	1.388	1.291	1.196	1.114	1.042	0.973	0.917	0.867
308.15 K	1.353	1.25	1.167	1.084	1.013	0.951	0.891	0.844	0.802

CCCCCCCCCl + CCCCCCCCCC
298 K, 101.3 kPa
Conditions	viscosity [mPa·s]
x2 = 0.1115	1.067
x2 = 0.2067	1.026
x2 = 0.3061	0.9966
x2 = 0.4041	0.969
x2 = 0.505	0.9433
x2 = 0.6124	0.9242
x2 = 0.707	0.8969
x2 = 0.797	0.8862
x2 = 0.8983	0.874

CCCCCl + CCCCCCCCCC
298 K, 101.3 kPa
Conditions	viscosity [mPa·s]
x2 = 0.1032	0.4681
x2 = 0.202	0.5006
x2 = 0.3087	0.5437
x2 = 0.3992	0.5768
x2 = 0.5065	0.6297
x2 = 0.5992	0.6636
x2 = 0.6974	0.7109
x2 = 0.7967	0.7607
x2 = 0.8968	0.811

CCOC(=O)c1ccccc1 + CCCCCCCCCC
101 kPa
Conditions	viscosity [mPa·s]
298.15 K, x2 = 0.0396	1.837
298.15 K, x2 = 0.1121	1.655
298.15 K, x2 = 0.151	1.566
298.15 K, x2 = 0.2285	1.42
298.15 K, x2 = 0.2637	1.355
298.15 K, x2 = 0.3109	1.289
298.15 K, x2 = 0.4026	1.176
298.15 K, x2 = 0.4449	1.136
298.15 K, x2 = 0.4949	1.088
298.15 K, x2 = 0.5326	1.056
298.15 K, x2 = 0.5928	1.011
298.15 K, x2 = 0.6401	0.982
298.15 K, x2 = 0.6988	0.947
298.15 K, x2 = 0.812	0.894
298.15 K, x2 = 0.8703	0.875
298.15 K, x2 = 0.9276	0.86
308.15 K, x2 = 0.0574	1.521
308.15 K, x2 = 0.0864	1.466
308.15 K, x2 = 0.1337	1.383
308.15 K, x2 = 0.1677	1.329
308.15 K, x2 = 0.1997	1.279
308.15 K, x2 = 0.2471	1.215
308.15 K, x2 = 0.2846	1.165
308.15 K, x2 = 0.3332	1.109
308.15 K, x2 = 0.3766	1.065
308.15 K, x2 = 0.4181	1.024
308.15 K, x2 = 0.4647	0.985
308.15 K, x2 = 0.5144	0.947
308.15 K, x2 = 0.5655	0.913
308.15 K, x2 = 0.6123	0.885
308.15 K, x2 = 0.6663	0.854
308.15 K, x2 = 0.7228	0.828
308.15 K, x2 = 0.7857	0.803
308.15 K, x2 = 0.8405	0.784
308.15 K, x2 = 0.9073	0.764
318.15 K, x2 = 0.0323	1.298
318.15 K, x2 = 0.07	1.235
318.15 K, x2 = 0.1012	1.188
318.15 K, x2 = 0.1446	1.128
318.15 K, x2 = 0.1842	1.078
318.15 K, x2 = 0.2269	1.027
318.15 K, x2 = 0.2679	0.984
318.15 K, x2 = 0.3143	0.939
318.15 K, x2 = 0.3561	0.903
318.15 K, x2 = 0.4045	0.866
318.15 K, x2 = 0.4499	0.835
318.15 K, x2 = 0.5021	0.803
318.15 K, x2 = 0.5496	0.777
318.15 K, x2 = 0.6035	0.752
318.15 K, x2 = 0.6545	0.73
318.15 K, x2 = 0.7126	0.708
318.15 K, x2 = 0.7674	0.69
318.15 K, x2 = 0.8289	0.674
318.15 K, x2 = 0.8862	0.661
